Data on 1 molecule can be found in publication PMC9607599, “Dual Targeting Ligands—Histamine H3 Receptor Ligands with Monoamine Oxidase B Inhibitory Activity—In Vitro and In Vivo Evaluation” (Pharmaceutics, 2022).

Structures are written as SMILES. A value given as a limit tells only on which side of the number the result lay.

The target of one data set is T1, human MAO B (hMAO B) (Homo sapiens, UniProt P27338).
T1 sequence (P27338 1-520): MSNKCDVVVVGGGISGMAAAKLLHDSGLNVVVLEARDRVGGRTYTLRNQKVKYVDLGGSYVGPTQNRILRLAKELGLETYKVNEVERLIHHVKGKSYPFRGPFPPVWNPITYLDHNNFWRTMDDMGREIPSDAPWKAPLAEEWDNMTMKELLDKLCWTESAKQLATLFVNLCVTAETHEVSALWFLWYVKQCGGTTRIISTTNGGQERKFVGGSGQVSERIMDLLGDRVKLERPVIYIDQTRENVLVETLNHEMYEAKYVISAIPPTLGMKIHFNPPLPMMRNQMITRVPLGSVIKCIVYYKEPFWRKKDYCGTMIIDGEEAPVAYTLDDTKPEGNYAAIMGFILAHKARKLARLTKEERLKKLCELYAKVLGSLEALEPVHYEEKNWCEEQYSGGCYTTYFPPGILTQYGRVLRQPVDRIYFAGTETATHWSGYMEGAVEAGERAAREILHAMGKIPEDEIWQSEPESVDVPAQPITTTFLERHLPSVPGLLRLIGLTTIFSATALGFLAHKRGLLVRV
As to the kind of experiment: fluorometric MAO assay (p-tyramine substrate). In kind it is biochemical. As to conditions: fluorometric MAO assay; mean ± SEM of 2–4 independent experiments. Here is the method:
The precise method was described in [6]. First, compounds 4–32 were screened for hMAO B inhibitory activity at 1 μM concentration by the fluorometric method. Para-tyramine (200 μM) was used as a substrate for the enzyme and safinamide (1 μM) was used as a reference compound. […] Each experiment was performed in duplicate.
All compounds were first screened for hMAO B inhibitory activity at the concentration of 1 μM. […] Based on the results, we selected compounds 9 and 13 for further analysis.

Another data set concerns the target T2, MAO B (Homo sapiens, UniProt P27338).
T2 sequence (P27338 1-520): T1 sequence (P27338 1-520)
The experiment in a line: reversibility of MAO B inhibition (reactivation by excess p-tyramine, with/without preincubation). The data set is classed as biochemical. As to conditions: inhibitor at IC80. The method, then:
The reversibility of the MAO inhibition was tested as described in [6, 7]. […] Two variants of experiment were performed. […] After 22 min, the concentration of the substrate was increased to 200 µM and the signal was measured for 5 h.

Data set [1] is described as follows: MTT cell viability test on human astrocytes. In kind it is cell-based. As to conditions: human; 24 h; at 0.15 and 0.25 mg/mL; read-out: decline in cell viability in comparison to the control level. Here is the method:
The studies were performed on a commercially-available astrocyte cell line isolated from human cerebral cortex (ScienCell Research Laboratories, San Diego, CA, USA; Cat no. 1800). The cells (passage 7–8) were seeded into a 96-well plate at an amount of 10,000 cells/well and kept in accordance with the ScienCell Research Laboratories’ protocol, i.e., in astrocyte medium supplemented with 2% fetal bovine serum, 10% astrocyte growth supplement and 1% penicillin/streptomycin solution, in an atmosphere with 5% CO2 at 37 °C. The cells were allowed to grow for 24 h and then treated with increasing concentrations of test compounds (0.01–0.25 mg/mL) for 24 and 72 h. Astrocytes in the medium on each plate (regardless of the factors tested) were used as a positive control.
The viability of the astrocyte cell line was determined calorimetrically using 3-(4,5-dimethylthazol-2-yl)-2,5-diphenyltetrazolium bromide (MTT; Sigma-Aldrich Chemical Co. Ltd., Saint Louis, MO, USA) as described earlier. […] After the incubation time (24 or 72 h) with examined drugs, 50 μL MTT solution (1 mg/mL) was added to each well of the plate for another 4 h. The method is based on the reduction of a yellow tetrazolium salt (MTT) into purple formazan crystals by mitochondrial succinate-tetrazolium reductase system which is metabolically active in viable cells. At the end of the experiment, the cells were treated with 100 μL dimethyl sulphoxide, which enabled the release of the reaction product.
The absorbance was measured at 570 nm using a BioTek EL×800 microplate reader (BioTek, Winooski, Vermont, USA) and results were expressed as a percentage of the absorbance measured in control cells. The obtained values were plotted against different concentrations of each compound to calculate the viability inhibition concentration at 50% (IC50) using GraphPad Prism 6.07 (GraphPad Software, Inc., San Diego, CA, USA). The experiment was repeated in quadruplicate.
For the cytotoxicity assessment in the MTT assays, each test drug was used at 8 concentrations (range: 0.01–0.25 mg/mL).
For orientation: Formazan colour is commonly taken as a measure of viable cells.

In data set [2] the target is human histamine H3 receptor (hH3R) (Homo sapiens, UniProt Q9Y5N1). The experiment in a line: [3H]Nα-methylhistamine radioligand binding assay in CHO-K1 cells stably expressing hH3R. On the set-up: expressed in transfected cells; host or cells: CHO-K1. To be noted: CHO-K1 cells; [3H]Nα-methylhistamine; mean ± SEM of three independent experiments; read-out: hH3R Ki [nM] ± SEM. The method, then: Affinity to hH3R stably expressed in CHO-K1 [6] or HEK293 [11] cells was evaluated in a radioligand binding assay as described previously. Briefly, 10 mM stock solutions of the test compounds in DMSO were prepared. Each compound was tested at eight concentrations ranging from 10^−5 to 10^−12 M (final concentration). All assays were carried out in duplicate. […] The radioactivity was counted in MicroBeta 2 [6] or MicroBeta Trilux counter (PerkinElmer). Data were fitted to a one-site curve-fitting equation with Prism 6 (GraphPad Software, San Diego, CA, USA) and Ki values were calculated from IC50 values (from at least three experiments performed in duplicates) according to the Cheng−Prusoff equation [12].
human histamine H3 receptor (hH3R), sequence (Q9Y5N1 whole entry): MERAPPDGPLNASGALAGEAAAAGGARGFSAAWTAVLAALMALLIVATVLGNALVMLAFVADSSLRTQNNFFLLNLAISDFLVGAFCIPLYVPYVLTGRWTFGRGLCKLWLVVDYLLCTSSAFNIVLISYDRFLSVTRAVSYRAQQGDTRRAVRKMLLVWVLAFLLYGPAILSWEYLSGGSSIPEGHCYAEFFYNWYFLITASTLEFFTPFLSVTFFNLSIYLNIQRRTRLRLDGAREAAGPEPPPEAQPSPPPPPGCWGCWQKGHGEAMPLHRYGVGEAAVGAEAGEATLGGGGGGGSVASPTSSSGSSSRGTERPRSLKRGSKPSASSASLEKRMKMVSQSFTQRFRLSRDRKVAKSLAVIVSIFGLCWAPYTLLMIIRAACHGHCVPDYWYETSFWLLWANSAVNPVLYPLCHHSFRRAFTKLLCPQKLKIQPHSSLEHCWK
Affinity for hH3R was evaluated in a radioligand binding assay using [^3H]N^α-methylhistamine as radioligand in CHO K1 or HEK293 cells stably expressing hH3R as described previously. […] Then, those with at least 50% inhibition for hH3R were selected for further testing (Ki evaluation). […] Compounds were tested in the binding assay in HEK293 cells.

The IC50 is the midpoint of a concentration-inhibition curve. Higher therefore signals lower potency. For orientation: viability means the share of living cells, or the viability signal relative to a control. Broadly, the Ki is the dissociation constant of the complex between target and ligand, obtained from inhibition or displacement. On to `CC1CCCN1CCCOc1ccc(C(C)(C)C)cc1.O=C(O)C(=O)O` (centres unmarked) [Compound 13, 1-(3-(4-(tert-Butyl)phenoxy)propyl)-2-methylpyrrolidine hydrogen oxalate], for which, at human MAO B (hMAO B), the concentration for half-maximal inhibition (IC50) turned out to be 4 ± 0.3 nM. In addition, the “effect of 30 min preincubation on inhibition (preincubated vs non-preincubated)” value on MAO B is on record as “did not show differences between the variants”. The “reversibility of MAO B inhibition” value on MAO B (excess p-tyramine 200 µM) is listed as “reversible inhibition”. Further, the viability at 24 h in data set [1] is greater than 95%. Also, the inhibitory constant (Ki) in data set [2] was 25 ± 9 nM.
